{"source": "patent US20250237642A1", "about": "(priority 2022, published 2025)", "key": {"[1]": {"tested_on": "HIV-RT M184V and M184I", "conditions": "cited from earlier work"}, "[2]": {"target": "T1, HIV-RT Q151M mutation (Human immunodeficiency virus type 1 group M subtype B, UniProt P03366, Q750M)", "conditions": "cited from earlier work"}, "[3]": {"target": "T1, HIV-RT Q151M mutation", "conditions": "cited from earlier work", "remark": "listed apart in the source"}, "[4]": {"target": "HBV core protein mutants (Hepatitis B virus genotype D subtype ayw, UniProt P03146, T109I)", "conditions": "cited from earlier work"}, "[5]": {"target": "HBV wild-type (Hepatitis B virus genotype D subtype ayw, UniProt P03146)"}, "[6]": {"target": "T109 mutant (Hepatitis B virus genotype D subtype ayw, UniProt P03146, T109I)"}, "[7]": {"target": "HBV core protein mutants (Hepatitis B virus genotype D subtype ayw, UniProt P03146, F110I)", "conditions": "cited from earlier work"}, "[8]": {"target": "HBV core protein mutants (Hepatitis B virus genotype D subtype ayw, UniProt P03146, F23Y)", "conditions": "cited from earlier work"}, "[9]": {"target": "HBV core protein mutants (Hepatitis B virus genotype D subtype ayw, UniProt P03146, L140I)", "conditions": "cited from earlier work"}, "[10]": {"target": "HBV core protein mutants (Hepatitis B virus genotype D subtype ayw, UniProt P03146, L30F)", "conditions": "cited from earlier work"}, "[11]": {"target": "HBV core protein mutants (Hepatitis B virus genotype D subtype ayw, UniProt P03146, T128I)", "conditions": "cited from earlier work"}, "[12]": {"target": "HBV core protein mutants (Hepatitis B virus genotype D subtype ayw, UniProt P03146, T33Q)", "conditions": "cited from earlier work"}}}
{"smiles": "Nc1nc(=O)n([C@@H]2CS[C@H](CO)O2)cc1F", "note": "[(-)-FTC, emtricitabine]", "values": [{"measurement": "fold resistance", "setting": "[1]", "value": "500-1000 fold"}, {"measurement": "fold reduction of EC50", "setting": "[2]", "value": 2, "unit": "fold"}, {"measurement": "Enzymatic sensitivity", "setting": "[3]", "value": "remains sensitive"}]}
{"smiles": "CCOC(=O)C1=C(CN2CCOCC2)NC(c2nccs2)=NC1c1ccc(F)cc1Br", "note": "(stereo not drawn) [GLS4]", "values": [{"measurement": "Reported resistance mutation", "setting": "[4]", "value": "resistant"}]}
{"smiles": "C#CCNC(=O)C(=O)c1c(C)c(C(=O)Nc2ccc(F)c(F)c2)n(C)c1C", "note": "[GLP-26]", "values": [{"measurement": "Effect on HBeAg production (sensitive / resistant)", "setting": "[5]", "value": "Sensitive"}, {"measurement": "Reduction of cccDNA", "setting": "[6]", "value": "susceptible"}]}
{"smiles": "C[C@H](NS(=O)(=O)c1cc(C(=O)Nc2ccc(F)c(C#N)c2)n(C)c1)C(F)(F)F", "note": "[JNJ-6379]", "values": [{"measurement": "Reported resistance mutation", "setting": "[7]", "value": "reported"}, {"measurement": "Reported resistance mutation", "setting": "[8]", "value": "resistance mutations"}, {"measurement": "Reported resistance mutation", "setting": "[9]", "value": "reported"}, {"measurement": "Reported resistance mutation", "setting": "[10]", "value": "resistance mutations"}, {"measurement": "Reported resistance mutation", "setting": "[11]", "value": "reported"}]}
{"smiles": "COC(=O)C1=C(C)NC(c2ncc(F)cc2F)=N[C@H]1c1ccc(F)cc1Cl", "note": "[BAY41-4109]", "values": [{"measurement": "Reported resistance mutation", "setting": "[7]", "value": "reported"}, {"measurement": "Reported resistance mutation", "setting": "[8]", "value": "resistance mutations"}, {"measurement": "Reported resistance mutation", "setting": "[10]", "value": "resistance mutations"}, {"measurement": "Reported resistance mutation", "setting": "[12]", "value": "resistance mutation"}]}
